The assay deals with Streptozotocin (STZ)-treated mice. As to the kind of experiment: Blood glucose lowering in Streptozotocin (STZ)-treated mice. The assay is classed as in vivo. The conditions noted are these: insulin 1 IU/kg subcutaneously. As to the method: The efficacy of the Artemisia dracunculus extract was evaluated in Streptozotocin (STZ)-treated mice. STZ induces diabetes by destroying most, if not all, of the beta cells of the pancreas, leaving the animals with little or no insulin production and severe hyperglycemia [Hisashi, et al., European Journal of Pharmacology, 87:237-243 (1983)]. […] Mice were treated with STZ as described by Hisashi et al., European Journal of Pharmacology, 87:237-243 (1983). A 500 mg/kg dose of Artemisia dracunculus extract was administered daily by oral gavage to STZ-treated mice for a period of 7 days. Additionally, a dose of insulin (1 IU/kg) was administered. subcutaneously to STZ-treated mice, while 20 ml/kg of vehicle only (0.9% NaCl or 2% Tween 80 in distilled water) was administered to STZ-treated mice, as a control. […] Regardless of mechanism, however, the results establish that plant extracts, such as the mildly polar ethanolic extract of A. dracunculus, can be orally administered in a dose effective in lowering blood glucose levels.

As for insulin, the “reduction in blood glucose concentrations” value was found to be 42%.
